Earlier results, collected in US6543389B2, “Insecticidal pet collar” (Pfizer Inc., priority 2001, dated 2003).

Columns and labels:
ticks [1] = settings: as compared with fipronil
ticks [2] = settings: collars as currently marketed, extruded matrix containing about 9% by weight of amitraz
alpha-2 adrenoceptor = settings: affected dogs, injected intramuscularly

Cc1ccc(N=CN(C)C=Nc2ccc(C)cc2C)c(C)c1 [Amitraz, 1,5-di-(2,4-dimethylphenyl)-3-methyl-1,3,5-triazapenta-1,4-diene]
effect on numbers of live feeding ticks, egg hatchability, and larval viability (ticks [1]): significantly greater effect
duration of tick protection (ticks [2]): about four

CCC1(c2c[nH]cn2)Cc2ccccc2C1 [atipamezole, 4-(2-ethyl-2,3-dihydro-1H-inden-2-yl)-1H-imidazole]
reversing effects of amitraz toxicosis (alpha-2 adrenoceptor): effective in reversing effects of amitraz toxicosis
